Tested on: patients with advanced solid tumors
Experiment: Phase 1 trial: adverse events (CTCAE), DLT and MTD
Assay type: in vivo, human
Experimental: The phase 1 trial was a two-part, multicenter, open-label, nonrandomized study to evaluate the safety and preliminary efficacy of HA121-28.
Safety, tolerability, and PK of HA121-28 was assessed in dose-escalation part. The single-patient accelerated titration was carried out at 25 mg and 50 mg; then, the dose escalation proceeded according to a “3 + 3” design in dose range of 100 to 800 mg. Escalation to a higher dose level was considered by the satisfactory review of safety results from the previous lower dose during the first cycle.
The dose-expansion part aims to further access the safety and efficacy of HA121-28 at the selected doses based on data from the dose-escalation part. The RP2D was determined by investigators in view of a thorough review of safety, PK, and efficacy results.
In phase 1 trial, during the dose-escalation part, patients first administered HA121-28 in a single ascending dose under the fasted state, then followed up for seven days. Then, patients received ascending doses of HA121-28 (q.d.) on a 21-day on and 7-day off treatment scheme for a 28-day cycle. For patients deemed beneficial from the treatment by investigators, treatment could remain until disease progression, or they discontinued from the study. In the dose-expansion part of phase 1, as well as phase 2, patients received HA121-28 (q.d.) at the selected doses on a 21-day on and 7-day off treatment scheme until disease progression, or they discontinued from the study.
Treatment-emergent adverse events (TEAEs) were documented during the entire study period. The predefined adverse event of special interest (AESI) was ≥ grade 3 prolonged QT interval. Tumor imaging was performed using contrast-enhanced computed tomography or magnetic resonance imaging at screening, Day 28 of the first cycle, then approximately every eight weeks till the end of the study for phase 1; in phase 2, imaging was scheduled at screening, and every eight weeks during the first 40 weeks, followed by every 12 weeks for the rest of the study period. RECIST 1.1 was used by the independent review committee or investigators for assessment of tumor response. After the original assessment, a repeated assessment was required around four weeks later to confirm a complete or partial response.
The primary endpoints of phase 1 were to investigate the MTD, dose-limiting toxicities, and the incidence and severity of TEAEs. Each TEAE was graded according to the Common Terminology Criteria for Adverse Events (CTCAE, version 5.0) and coded by Medical Dictionary for Regulatory Activities (MedDRA, version 21.0). The secondary endpoints included calculating PK parameters, assessing the ORR and DCR at the recommended dose by investigators as per RECIST 1.1. The exploratory endpoint was PFS.
If grade 2 or higher toxicity related to the study drug occurs in Groups 1 and 2 (as determined by the investigator), dose escalation will proceed using a 3+3 design starting from that dose level. If no DLT is observed at the 800 mg/d dose level after dose escalation, a meeting of investigators will be convened to decide whether to proceed with further dose escalation based on the available PK data, safety, and tolerability information.
5. Definition of DLT and MTD
The following events related to the study drug (including those that are definitely related, highly likely to be related, and possibly related):
(1) Grade 4 hematologic toxicity or grade 3 neutropenia accompanied by a fever of 38.5℃ or higher, or grade 3 thrombocytopenia accompanied by severe bleeding.
(2) Patients who discontinued the medication for more than 7 days due to unresolved toxicity reactions or who discontinued the medication more than twice due to toxicity […]
(3) In the context of supportive treatment, diarrhea of grade 2 lasting more than 7 days, or grade 3 diarrhea lasting more than 3 days.

COc1cc2c(Nc3ccc(Br)cc3F)ncnc2cc1OCCCCN(C)C.Cl.Cl [HA121-28, N-(4-bromo-2-fluorophenyl)-7-(4-(dimethylamino)butoxy)-6-methoxy quinazolin-4-amine dihydrochloride]
68.8%: incidence of ≥ grade-3 TEAEs (600 mg/day)
1 (25.0) No. (%): Serious TEAE: Any (Phase 1, 300 mg (N=4)) | Serious TEAE: Aortic intramural hematoma (Phase 1, 300 mg (N=4))
36.7%: incidence of ≥ grade-3 TEAEs (450 mg/day)
0 No. (%): Serious TEAE: ALT increased (Phase 1, 300 mg (N=4)) | Serious TEAE: AST increased (Phase 1, 300 mg (N=4)) | Serious TEAE: Abdominal Pain (Phase 1, 300 mg (N=4)) | Serious TEAE: Abdominal distension (Phase 1, 300 mg (N=4)) | Serious TEAE: Acute cholecystitis (Phase 1, 300 mg (N=4)) | Serious TEAE: Acute pancreatitis (Phase 1, 300 mg (N=4)) | Serious TEAE: Anal abscess (Phase 1, 300 mg (N=4)) | Serious TEAE: Arrhythmia (Phase 1, 300 mg (N=4)) | Serious TEAE: Blood bilirubin increased (Phase 1, 300 mg (N=4)) | Serious TEAE: Blood creatinine increased (Phase 1, 300 mg (N=4)) | Serious TEAE: COVID-19 (Phase 1, 300 mg (N=4)) | Serious TEAE: Cardiac tamponade (Phase 1, 300 mg (N=4)) | Serious TEAE: Coronary artery atherosclerosis (Phase 1, 300 mg (N=4)) | Serious TEAE: Death (Phase 1, 300 mg (N=4)) | Serious TEAE: Diarrhea (Phase 1, 300 mg (N=4)) | Serious TEAE: Drug eruption (Phase 1, 300 mg (N=4)) | Serious TEAE: Dyspnea (Phase 1, 300 mg (N=4)) | Serious TEAE: Embolism (Phase 1, 300 mg (N=4)) | Serious TEAE: Erythema multiforme (Phase 1, 300 mg (N=4)) | Serious TEAE: Headache (Phase 1, 300 mg (N=4)) | Serious TEAE: Hemoptysis (Phase 1, 300 mg (N=4)) | Serious TEAE: Hydronephrosis (Phase 1, 300 mg (N=4)) | Serious TEAE: Hypertension (Phase 1, 300 mg (N=4)) | Serious TEAE: Hypoalbuminemia (Phase 1, 300 mg (N=4)) | Serious TEAE: Intestinal obstruction (Phase 1, 300 mg (N=4)) | Serious TEAE: Intra-abdominal fluid collection (Phase 1, 300 mg (N=4)) | Serious TEAE: Intracranial tumor hemorrhage (Phase 1, 300 mg (N=4)) | Serious TEAE: Liver injury (Phase 1, 300 mg (N=4)) | Serious TEAE: Lung adenocarcinoma (Phase 1, 300 mg (N=4)) | Serious TEAE: Malignant neoplasm progression (Phase 1, 300 mg (N=4)) | Serious TEAE: Multiple organ dysfunction syndrome (Phase 1, 300 mg (N=4)) | Serious TEAE: Nausea (Phase 1, 300 mg (N=4)) | Serious TEAE: Nephrolithiasis (Phase 1, 300 mg (N=4)) | Serious TEAE: Platelet counts decreased (Phase 1, 300 mg (N=4)) | Serious TEAE: Pleural effusion (Phase 1, 300 mg (N=4)) | Serious TEAE: Pneumonia (Phase 1, 300 mg (N=4)) | Serious TEAE: Pneumonitis (Phase 1, 300 mg (N=4)) | Serious TEAE: Prolonged QT interval (Phase 1, 300 mg (N=4)) | Serious TEAE: Pulmonary embolism (Phase 1, 300 mg (N=4)) | Serious TEAE: Pyrexia (Phase 1, 300 mg (N=4)) | Serious TEAE: Rash (Phase 1, 300 mg (N=4)) | Serious TEAE: Rectal hemorrhage (Phase 1, 300 mg (N=4)) | Serious TEAE: Respiratory failure (Phase 1, 300 mg (N=4)) | Serious TEAE: Seizure (Phase 1, 300 mg (N=4)) | Serious TEAE: Septic shock (Phase 1, 300 mg (N=4)) | Serious TEAE: Sudden cardiac arrest (Phase 1, 300 mg (N=4)) | Serious TEAE: Sudden death (Phase 1, 300 mg (N=4)) | Serious TEAE: Upper respiratory tract infection (Phase 1, 300 mg (N=4)) | Serious TEAE: Ventricular tachycardia (Phase 1, 300 mg (N=4)) | Serious TEAE: Vomiting (Phase 1, 300 mg (N=4)) | Serious TEAE: Weight loss (Phase 1, 300 mg (N=4)) | Serious TRAE: ALT increased (Phase 1, 300 mg (N=4))
two: patients with dose-limiting toxicities (800 mg (q.d.), grade-3 decreased appetite, grade-3 prolonged QT interval)
